Laboratory results taken from patent US12558329B2 (New York University, priority 2021, dated 2026).
Entries after “also recorded” stand apart in the source; their conditions may differ.

Tests used:
human cells = test: 18O2-GASSP labelling of human cells, untargeted polar metabolomics, with or without IOX1; type: cell-based; settings: A498 and SKNDZ cells, 3%, 1%, 0.2% 18O2, IOX1 24 hours
Procedure: To map the molecular fate of O2 in metabolic pathways in living cells, GASSP was used to carry out ^18O2 labelling in cell lines of different tissue origins at ^18O2 concentrations that represented physiological (3%), hypoxic (1%), and severely hypoxic (0.2%) oxygen tensions found in tissues and tumours^7. At the end of each run, polar metabolites were extracted and untargeted polar metabolomics using liquid chromatography-high resolution mass spectrometry (LC-MS) were carried out to identify metabolites labeled with ^18O.
A list of unique features identified by untargeted metabolomics that were >0.25% (natural abundance of ^18O is 0.2%) labelled by ^18O atoms in each cell line at each oxygen tension was generated. In addition, background signal was controlled by requiring that ^18O labeled peaks had to have a signal that was two-fold greater than naturally occurring isotopes found in non-labelled (^16O) metabolite cell extracts. To determine the proportion of unique ^18O labelled features that were due to dioxygenase activity, cells were treated with a pan-dioxygenase inhibitor (IOX1) at concentrations that inhibit iron-dependent dioxygenases, such as the HIF1α prolyl hydroxylases (FIGS. 5E-5F) and identified ^18O labelled polar metabolites. This list of ^18O metabolites was generated by identifying all features in the unlabelled samples, filtering these features against blank samples to remove background peaks, and calculating the fractional ^18O labelling with the assumption that a metabolite would have no more than three oxygen atoms labelled, followed by manual curation of labelled features (FIG. 1B and FIG. 5G). […] These ^18O-labelled features were termed the oxy-metabolome.
To determine the identities of the labeled metabolites, the list of ^18O labelled features was annotated to their corresponding unlabelled metabolites using retention time matching, tandem mass spectrometry (MS2) fragmentation patterns, and database searching.
All steps involved in setting up labelling with ^18O2 were performed at room temperature and inside a chemical fume hood. The procedure may vary depending on the type and number of tissue culture plates in the chamber and the amount of media in the plates. Users must test the system by using ^16O2:CO2:N2 or other unlabelled gases to optimize conditions for their needs and avoid consumption of costly labelled gases. Cells were treated with or without 5 μM MG132, 500 μM IOX1, 250 μM DFO, or 70 μM ascorbate, before placing tissue culture plates into the modular incubator chamber (MIC) containing a wireless oxygen sensor and a 15 cm dish of water to maintain humidity. Next, the clamps were closed to form an air-tight seal between the lid and platform of the MIC. […] N2 flushing was repeated for a total of three times, or until the sensor in the chamber stabilized at 0% O2 for 10 minutes.

MIAPACA2 cells = test: 13C9-Tyr tracing in MIAPACA2 cells with the indicated reagents; type: cell-based, human
Description: 4-HMA biosynthesis has only been described in some bacteria and in rabbits. […] The production of 4-HPPA occurs in the first step of tyrosine (Tyr) catabolism via tyrosine transaminase (TAT). In rabbits, 4-HMA was proposed to be synthesized from the degradation of tyramine and octopamine by dopamine β-hydroxylase (Dbh) and monoamine oxidase (Mao) (FIG. 9A)^13. Tyramine is also a Tyr-derived metabolite. Therefore, all known substrates required to generate 4-HMA are derived from Tyr. In addition, Tyr can also be made from phenylalanine (Phe) by Phe hydroxylase (PAH) in mammalian liver cells^14. To elucidate the human 4-HMA biosynthetic pathway, the fates of ^13C9-Tyr and ^13C6-Phe were traced in human cells. […] Additionally, the generation of 4-HMA by […] would result in the incorporation of a single ^18O at the Ca position of the carboxylic acid of 4-HMA (FIG. 9A). However, this was not observed by ^18O labelling (FIG. 8B). Therefore, it was unlikely that 4-HMA biosynthesis from octopamine and tyramine catabolism occurred in the present system.
Unexpectedly, 4-HMA levels also were lower in hyperoxic (21%) conditions compared to 3% O2, reflecting either decreased production or increased consumption of this metabolite at 21% O2.
Therefore, CoQ10 was used as an indirect readout of 4-HB production. To assess the ability of human cells to biosynthesize CoQ10, cells were labelled with ^13C6-Phe or ^13C9-Tyr. CoQ10 was completely biosynthesized from Tyr, but not Phe, in human cells (FIG. 11B).
For metabolomics, briefly, cells were washed in 4° C. 0.9% saline and metabolites were extracted with 46% methanol:23% H2O:[…] chloroform that contained a labelled amino acid standard mix (MSK-A2-1.2, Cambridge Isotope Laboratories, Inc.). Enzymatic assay samples were extracted using 80% methanol: 20% H2O that contained labelled amino acid standards. Extracts were placed into 1.5 mL Eppendorf tubes, vortexed at 4° C. for 10 min and centrifuged at 4° C. for 10 min at 17,200×g in a microcentrifuge. The aqueous phase was transferred to vials for GC-MS or Eppendorf tubes for LC-MS. Polar samples were evaporated in a SpeedVac and samples were resolved by GC-MS or LC-MS. Lipid samples were dried using a stream of N2 (for ^18O labelling studies) or air. Metabolite and lipid extracts were submitted to the NYULMC Metabolomics Core Resource Laboratory.
For polar metabolomics, the LC column was a Millipore ZIC-pHILIC (2.1×150 […], 5 μm bead size) coupled to a Dionex UltiMate 3000 system. The column oven temperature was held at 25° C. The flow rate was 100 μL/min, and the injection volume was 1 μL. Buffer A was 10 mM ammonium carbonate in water, pH 9, and Buffer B was neat acetonitrile. The gradient profile was 80-20% B (0-30 min), 20-80% B (30-31 min), and 80-80% B (31-42 min). MS Analyses were carried out on a Thermo Q Exactive HF mass spectrometer using a heated electrospray ionization (HESI) source. The method duration was 30 min using a polarity-switching, top 5 method. The spray voltage for both positive and negative ion modes was 3.5 kV. The capillary temperature was 320° C. with a maximum spray current of 100 ρA. The full MS scan was carried out at 120,000 resolution with a scan range of 67-1000 m/z. For ^18O2 labelling experiments, full MS scans were carried out at 240,000 resolution at the same scan range. Tandem MS spectra were obtained at 15,000 resolution. All data were acquired in profile mode. Peak heights were analyzed using Xcalibur (ThermoFisher Scientific).
Lipid metabolomics were acquired using a Waters CSH-C18 (2.1×100 mm, 1.7 μm) column coupled to a Dionex UltiMate 3000 system. The column oven temperature was held at 55° C. The flow rate was 300 μL/min and the injection volume was 1 μL. Buffer A was 60:40 acetonitrile:water, 0.1% formic acid and Buffer B was 90:10 isopropanol:acetonitrile, 10 mM ammonium formate. […]

O=C(O)c1ccc(O)c2ncccc12 [IOX1]
4-HMA 18O labeling (human cells): decreased
13C9-Tyr-derived 4-HMA (MIAPACA2 cells; 3% 16O2, 24 hours): attenuated or ablated; also recorded: severely inhibited
CoQ10 labelling from 13C9-Tyr (incorporation of tyrosine into CoQ10) (MIAPACA2 cells; 3% 16O2, 24 hours): eliminated; also recorded: completely blocked
4-HPLA pools (MIAPACA2 cells; 13C-Tyr, 3% O2, 24 hours): increased
